Experimental data taken from US10721929B2, “Heterocyclic compound and harmful-arthropod-controlling agent containing same” (Sumitomo Chemical Company, Limited, priority 2016, dated 2020).

Tested on: western corn rootworm
Experiment: Test Example 5: corn seedling immersion test, western corn rootworm larvae
Format: in vivo
Conditions: Zea mays, 120 h, corn seedlings immersed 30 seconds, ten 2-instar larvae, five days later, read-out: mortality rate of insects
Description: 1 mg of each test compound is dissolved in 50 μL of a mixed solution of polyoxyethylene sorbitan monococoate:acetone=5.95 (volume ratio). To the resultant is added water containing 0.03% by volume of a spreading agent, to prepare a diluted solution containing a predetermined concentration of the test compound.
Seeds of corn (Zea mays) are seeded onto a tray lined with wet Kimwipes, After the corn has grown for 5 days, die entire seedlings are immersed into the diluted solution for 30 seconds. Thereafter, two seedlings are put in a petri dish (diameter of 90 mm), and ten 2-instar larvae of western corn rootworm are released thereinto. Five days later, the number of dead insects is counted, and a mortality rate of insects is calculated by the following expression. Mortality rate of insects (%)=(number of dead insects/10)×100.

CCSc1c(-c2ccc(OCC(F)(F)C(F)(F)F)cn2)nc2ccc(C(F)(F)F)cn12 [Compound 1]
mortality at 500 ppm: ≥ 80%
